Assay results published in US20230045421A1 (priority 2018, published 2023).
pEC50: −log10 of the molar value. Where two headings read alike, the source gives them in different places.

System: HBV rcDNA
Experiment: HepDE19 assay with bDNA quantitation of HBV rcDNA
Format: cell-based, hepatitis B virus
Conditions: Hepatitis B virus, HepDE19, HepDE19 assay, read-out: DE-19bDNA EC50
Experimental: HepDE19 Assay with bDNA Quantitation of HBV rcDNA:
HepDE19 cell culture system is a HepG2 (human hepatocarcinoma) derived cell line that supports HBV DNA replication and cccDNA formation in a tetracycline (Tet)-regulated manner and produces HBV rcDNA and a detectable reporter molecule dependent on the production and maintenance of cccDNA (Guo, et al., 2007, J. Virol. 81:12472-12484).
HepDE19 (50,000 cells/well) were plated in 96-well collagen-coated tissue-culture treated microtiter plates in DMEM/F12 medium supplemented with 10% fetal bovine serum, 1% penicillin-streptomycin and 1 μg/mL tetracycline and incubated in a humidified incubator at 37° C. and 5% CO2 overnight. Next day, the cells were switched to fresh medium without tetracycline and incubated for 4 hours at 37° C. and 5% CO2. The cells were treated with fresh Tet-free medium with compounds at concentrations starting at 25 μM and a serial, […], 8-point, titration series in duplicate. The final DMSO concentration in the assay was 0.5%. The plates were incubated for 7 days in a humidified incubator at 37° C. and 5% CO2. Following a 7 day-incubation, the level of rcDNA present in the inhibitor-treated wells was measured using a Quantigene 2.0 bDNA assay kit (Affymetrix, Santa Clara, Calif.) with HBV specific custom probe set and manufacturers instructions. Concurrently, the effect of compounds on cell viability was assessed using replicate plates, plated at a density of 5,000 cells/well and incubated for 4 days, to determine the ATP content as a measure of cell viability using the cell-titer glo reagent (CTG; Promega Corporation, Madison, Wis.) as per manufacturer's instructions. The plates were read using a Victor luminescence plate reader (PerkinElmer Model 1420 Multilabel counter) and the relative luminescence units (RLU) data generated from each well was calculated as % inhibition of the untreated control wells and analyzed using XL-Fit module in Microsoft Excel to determine EC50 and EC90 (bDNA) and CC50 (CTG) values using a 4-parameter curve fitting algorithm.

[1] = inhibition of formation of rcDNA
[2] = inhibition of formation of relaxed circular DNA (rcDNA), bDNA quantitation

SMILES	pEC50 [1]	pEC50 [2]
CC(c1c[nH]c(=O)c2ccccc12)N(C)C(=O)Nc1ccc(F)c(Cl)c1 (racemic) [Compound 12, 3-(3-Chloro-4-fluorophenyl)-1-methyl-1-(1-(1-oxo-1,2-dihydroisoquinolin-4-yl)ethyl)urea]	6.80	–
COc1ncc(C(CCO)NC(=O)Nc2ccc(F)c(Cl)c2)c2ccccc12 (racemic) [Compound 71, 1-(3-Chloro-4-fluorophenyl)-3-(3-hydroxy-1-(1-methoxyisoquinolin-4-yl)propyl)urea]	5.36	–
CC(=O)NCCN(C(=O)Nc1ccc(F)c(Cl)c1)C(C)c1c[nH]c(=O)c2ccccc12 (racemic) [Compound 100, N-(2-(3-(3-chloro-4-fluorophenyl)-1-(1-(1-oxo-1,2-dihydroisoquinolin-4-yl)ethyl)ureido)ethyl)acetamide]	6.00	–
CCN(C(=O)Nc1ccc(F)c(Cl)c1)C(C)c1c[nH]c(=O)c2cnccc12 (racemic) [Compound 102, 3-(3-Chloro-4-fluorophenyl)-1-ethyl-1-(1-(1-oxo-1,2-dihydro-2,7-naphthyridin-4-yl)ethyl)urea]	7.00	–
CC(c1c[nH]c(=O)c2ccccc12)N(CCC#N)C(=O)Nc1ccc(F)c(Cl)c1 (racemic) [Compound 103, 3-(3-chloro-4-fluorophenyl)-1-(2-cyanoethyl)-1-(1-(1-oxo-1,2-dihydroisoquinolin-4-yl)ethyl)urea]	6.57	–
CNC(=O)CCN(C(=O)Nc1ccc(F)c(Cl)c1)C(C)c1c[nH]c(=O)c2ccccc12 (racemic) [Compound 104, 3-(3-(3-chloro-4-fluorophenyl)-1-(1-(1-oxo-1,2-dihydroisoquinolin-4-yl)ethyl)ureido)-N-methylpropanamide]	6.24	–
CC(c1c[nH]c(=O)c2ccccc12)N(CC(N)=O)C(=O)Nc1ccc(F)c(Cl)c1 (racemic) [Compound 128, 2-(3-(3-Chloro-4-fluorophenyl)-1-(1-(1-oxo-1,2-dihydroisoquinolin-4-yl)ethyl)ureido) acetamide]	5.82	–
CC(c1c[nH]c(=O)c2ccccc12)N(CC1CCOCC1)C(=O)Nc1ccc(F)c(Cl)c1 (racemic) [Compound 134, 3-(3-chloro-4-fluorophenyl)-1-(1-(1-oxo-1,2-dihydroisoquinolin-4-yl)ethyl)-1-((tetrahydro-2H-pyran-4-yl)methyl)urea]	7.15	–
CC(C)CN(C(=O)Nc1ccc(F)c(Cl)c1)C(C)c1c[nH]c(=O)c2ccccc12 (racemic) [Compound 135, 3-(3-chloro-4-fluorophenyl)-1-isobutyl-1-(1-(1-oxo-1,2-dihydroisoquinolin-4-yl)ethyl)urea]	8.00	–
CNc1ncc(C(C)N(C)C(=O)Nc2ccc(F)c(Cl)c2)c2nccnc12 (racemic) [Compound 136, 3-(3-chloro-4-fluorophenyl)-1-methyl-1-(1-(5-(methylamino)pyrido[3,4-b]pyrazin-8-yl)ethyl)urea]	5.55	–
COc1ncc(C(C)N(C)C(=O)Nc2ccc(F)c(Cl)c2)c2nccnc12 (racemic) [Compound 137, 3-(3-chloro-4-fluorophenyl)-1-(1-(5-methoxypyrido[3,4-b]pyrazin-8-yl)ethyl)-1-methylurea]	5.21	–
CC(c1c[nH]c(=O)c2ccccc12)N(CC(=O)N(C)C)C(=O)Nc1ccc(F)c(Cl)c1 (racemic) [Compound 147, 2-(3-(3-Chloro-4-fluorophenyl)-1-(1-(1-oxo-1,2-dihydroisoquinolin-4-yl)ethyl)ureido)-N,N-dimethylacetamide]	6.08	–
CC(c1c[nH]c(=O)c2nccnc12)N(C)C(=O)Nc1ccc(F)c(Cl)c1 (racemic) [Compound 148, 3-(3-chloro-4-fluorophenyl)-1-methyl-1-(1-(5-oxo-5,6-dihydropyrido[3,4-b]pyrazin-8-yl)ethyl)urea]	4.82	–
CC(C)CN(C(=O)Nc1ccc(F)c(Cl)c1)C(C)c1c[nH]c(=O)c2cnccc12 (racemic) [Compound 154, 3-(3-Chloro-4-fluorophenyl)-1-isobutyl-1-(1-(1-oxo-1,2-dihydro-2,7-naphthyridin-4-yl)ethyl)urea]	7.70	–
CC(c1c[nH]c(=O)c2ccccc12)N(CCCN)C(=O)Nc1ccc(F)c(Cl)c1 (racemic) [Compound 157, 1-(3-aminopropyl)-3-(3-chloro-4-fluorophenyl)-1-(1-(1-oxo-1,2-dihydroisoquinolin-4-yl)ethyl)urea]	4.64	–
COc1ncc(C(C)N(CCNCC(F)(F)F)C(=O)Nc2ccc(F)c(Cl)c2)c2ccccc12 (racemic) [Compound 158, 3-(3-Chloro-4-fluorophenyl)-1-(1-(1-methoxyisoquinolin-4-yl)ethyl)-1-(2-((2,2,2-trifluoroethyl)amino)ethyl)urea]	5.57	–
COc1ccc2c(C(C)N(C)C(=O)Nc3ccc(F)c(Cl)c3)c[nH]c(=O)c2c1 (racemic) [Compound 173, 3-(3-Chloro-4-fluorophenyl)-1-(1-(7-methoxy-1-oxo-1,2-dihydroisoquinolin-4-yl)ethyl)-1-methylurea]	6.42	–
CC(c1c[nH]c(=O)c2ccccc12)N(C[C@H]1CC[C@H](O)CC1)C(=O)Nc1ccc(F)c(Cl)c1 (mixture of isomers) [Compound 221, trans-3-(3-Chloro-4-fluorophenyl)-1-((4-hydroxycyclohexyl)methyl)-1-(1-(1-oxo-1,2-dihydroisoquinolin-4-yl)ethyl)urea]	6.68	–
CC(c1c[nH]c(=O)c2ccccc12)N(C[C@H]1CC[C@@H](O)CC1)C(=O)Nc1ccc(F)c(Cl)c1 (mixture of isomers) [Compound 225, cis-3-(3-Chloro-4-fluorophenyl)-1-((4-hydroxycyclohexyl)methyl)-1-(1-(1-oxo-1,2-dihydroisoquinolin-4-yl)ethyl)urea]	7.10	–
CC(c1cn(CC(F)(F)F)c(=O)c2ccccc12)N(C)C(=O)Nc1ccc(F)c(Cl)c1 (racemic) [Compound 228, 3-(3-Chloro-4-fluorophenyl)-1-methyl-1-(1-(1-oxo-2-(2,2,2-trifluoroethyl)-1,2-dihydroisoquinolin-4-yl)ethyl)urea]	6.11	–
CC(C)CN(C(=O)Nc1ccc(F)c(Cl)c1)C(C)c1cn(CC(F)(F)F)c(=O)c2ccccc12 (racemic) [Compound 229, 3-(3-Chloro-4-fluorophenyl)-1-isobutyl-1-(1-(1-oxo-2-(2,2,2-trifluoroethyl)-1,2-dihydroisoquinolin-4-yl)ethyl)urea]	7.15	–
Cc1cc(NC(=O)N(C)C(C)c2c(C)[nH]c(=O)c3ccccc23)ccc1F (racemic) [Compound 230, 3-(4-Fluoro-3-methylphenyl)-1-methyl-1-(1-(3-methyl-1-oxo-1,2-dihydroisoquinolin-4-yl)ethyl)urea]	6.92	–
CC(C)CN(C(=O)Nc1ccc(F)cc1)C(C)c1cn(CC(F)(F)F)c(=O)c2ccccc12 (racemic) [Compound 235, 3-(4-Fluorophenyl)-1-isobutyl-1-(1-(1-oxo-2-(2,2,2-trifluoroethyl)-1,2-dihydroisoquinolin-4-yl)ethyl)urea]	6.68	–
CC(c1cnc(NCCN)c2ccccc12)N(C)C(=O)Nc1ccc(F)c(Cl)c1 (racemic) [Compound 244, 1-(1-(1-((2-aminoethyl)amino)isoquinolin-4-yl)ethyl)-3-(3-chloro-4-fluorophenyl)-1-methylurea]	5.57	–
CC(c1c[nH]c(=O)c2cc(F)ccc12)N(C)C(=O)Nc1ccc(F)c(Cl)c1 (racemic) [Compound 257, 3-(3-Chloro-4-fluorophenyl)-1-(1-(7-fluoro-1-oxo-1,2-dihydroisoquinolin-4-yl)ethyl)-1-methylurea]	7.48	–
CC(c1c[nH]c(=O)c2cc(F)ccc12)N(C)C(=O)Nc1ccc(F)cc1 (racemic) [Compound 258, 3-(4-Fluorophenyl)-1-(1-(7-fluoro-1-oxo-1,2-dihydroisoquinolin-4-yl)ethyl)-1-methylurea]	6.82	–
CC(c1c[nH]c(=O)c2cc(Cl)ccc12)N(C)C(=O)Nc1ccc(F)c(Cl)c1 (racemic) [Compound 271, 1-(1-(7-Chloro-1-oxo-1,2-dihydroisoquinolin-4-yl)ethyl)-3-(3-chloro-4-fluorophenyl)-1-methylurea]	6.70	–
CC(c1cnc(-n2cncn2)c2ccccc12)N(C)C(=O)Nc1ccc(F)c(Cl)c1 (racemic) [Compound 297, 1-(1-(1-(1H-1,2,4-triazol-1-yl)isoquinolin-4-yl)ethyl)-3-(3-chloro-4-fluorophenyl)-1-methylurea]	–	6.74
CC(C)CN(C(=O)Nc1ccc(F)c(Cl)c1)C(C)c1cnc(-n2cncn2)c2ccccc12 (racemic) [Compound 300, 1-(1-(1-(1H-1,2,4-triazol-1-yl)isoquinolin-4-yl)ethyl)-3-(3-chloro-4-fluorophenyl)-1-isobutylurea]	–	7.70
